pIC50: −log10 of the molar value. Like-named read-outs stand apart in the source and are kept apart here.
Assays:
hiPSC-CMs = experiment: Cardiotoxicity assay in hiPSC-CMs (voltage transients, arrhythmia, contractility)
Procedure: iPSC-CMs: Human fibroblasts were reprogrammed to induced pluripotent stem cells (iPSCs) using Sendai viral vectors. All protocols were approved by the Stanford University Institutional Review Board. The obtained hiPSC clones were cultured in E8 cell culture media (Life Technologies) in plates coated growth factor-reduced Matrigel (Corning) until at least passage 20 before differentiation. hiPSC cells were differentiated into cardiomyocytes (CMs) utilizing a chemically defined cardiomyocyte differentiation protocol^55 and fatty acid rich maturation protocol.^56
hiPSC-CMs were plated on Matrigel coated 384-well plates at 20,000 cells per well (Greiner μClear) in 50 μl cardiomyocyte media (RMPI, B27) supplemented with 10% knock-out replacement serum. The subsequent day an additional 50 μl of media was added and cells were grown for a minimum of 5 days prior to analysis. Action potential kinetics and contractility was measured on the same cells sequentially. First, action potential kinetics were recorded using the protocol as established by Mckeithan et al.^58 Briefly, the cells were washed 5 times with FluoroBrite, loaded with VF2.1.CI dye for 50 min at 37° C., and washed again 5 times with FluoroBrite. Voltage time series were acquired at a frequency of 33 Hz for a duration of 10 s on the IC200 Kinetic Imaging Platform (Vala Sciences). […] The resulting recordings were subsequently analyzed using Vala Sciences and custom software, action potential kinetics, action potential durations and rates,^58 or contractile activity parameters (peak divergence, area under the curve) were used as measures of cardiotoxicity.^59

K-562 cells = experiment: Cell viability / growth inhibition (AlamarBlue), K-562; assay type: cell-based; conditions: Homo sapiens
Procedure: (§1) K562 and K562-T315I: The Leukemia cell lines K562 were purchased and maintained as recommended by ATCC (Manassas, VA, USA). Briefly, K562 cells were cultured in suspension in RPMI1640 (ThermoFisher Scientific, USA) supplemented with 10% fetal bovine serum and Pen/Strep/L-Glutamine. […] Briefly, one million K562 cells were seeded in 6-well plates and transfected with Lipofectamine 2000 and 1 μg of CRISPR/Cas9 vector (pSpCas9(BB)-2A-GFP) incorporating the guide sequence ([…]), and Lipofectamine RNAiMax and 4 μg of ssDNA donors (1ug of each donor, Supplementary Table 1) for each well of a 6-well plate.
(§2) The effects of the compounds on cell viability were evaluated using the AlamarBlue assay using the NCI60 methodology.^57 Cells were harvested and plated in 384-well plates (Greiner μClear) at a concentration of 1250 cells/well in 40 μL, and incubated for 24 h at 37° C. The next day, test compounds were added to the cells as a 2×40μL solution, and incubated for 48 h at 37° C.

HEK cells = experiment: HEK cell growth inhibition
[1] = Serum cardiac troponin levels in treated mice; conditions: 30 mg/kg daily by oral gavage; indication of cardiac damage
[2] = tested on: K-562-T315I cells (K-562 cells expressing BCR-ABL^T315I); experiment: Cell viability / growth inhibition (AlamarBlue), K-562-T315I; assay type: cell-based; conditions: Homo sapiens, K562, read-out: Cell Inhibition IC50 K-562-T315I
Procedure: as §1, §2

[3] = K562, Table 5, ± SD, read-out: Cell Inhibition IC50 K562

Compound: Cc1nccc(Nc2ncc(C(=O)Nc3c(C)cccc3Cl)s2)n1 [Compound 3b, N-(2-chloro-6-methylphenyl)-2-((2-methylpyrimidin-4-yl)amino) thiazole-5-carboxamide]
- Cardiotoxicity (overall maximum toxic dose) (hiPSC-CMs; Table 1): >10 µM

Compound: Cc1ccc(C(=O)N2CCN(C)CC2)cc1C#Cc1cnc2cccnn12 [Compound 10a, (3-(imidazo[1,2-b]pyridazin-3-ylethynyl)-4-methylphenyl)(4-methylpiperazin-1-yl)methanone]
- Cardiotoxicity (overall maximum toxic dose) (hiPSC-CMs; Table 3): >10 µM

Compound: Cc1ccc(C(=O)Nc2ccc(CN3CCN(C)CC3)c(C(F)(F)F)c2)cc1 [Compound 21a, 4-methyl-N-(4-((4-methylpiperazin-1-yl)methyl)-3-(trifluoromethyl)phenyl)benzamide]
- concentration at which cardiotoxicity was observed / cardiac-safe up to (hiPSC-CMs): 1.45 µM
- Cardiotoxicity (overall maximum toxic dose) (hiPSC-CMs; Table 4): 1.45 µM

Compound: Cc1nc(Nc2ncc(C(=O)Nc3c(C)cccc3Cl)s2)cc(N2CCN(CCO)CC2)n1 [Dasatinib]
- pIC50 (K-562 cells; [3]): 9.40
- Cardiotoxicity (overall maximum toxic dose) (hiPSC-CMs; Table 5): >10 µM

Compound: C#Cc1cc(C(=O)Nc2ccc(CN3CCN(C)CC3)c(C(F)(F)F)c2)ccc1C [Compound 19, 3-ethynyl-4-methyl-N-(4-((4-methylpiperazin-1-yl)methyl)-3-(trifluoromethyl)phenyl) benzamide]
- Cardiotoxicity (overall maximum toxic dose) (hiPSC-CMs; Table 4): 1.13 µM

Compound: Cc1ccc(C(=O)Nc2ccc(CN3CCN(C)CC3)c(C(F)(F)F)c2)cc1C#Cc1cnc2cccnn12 [Ponatinib]
- pIC50 (K-562 cells; K562, read-out: Cell Inhibition IC50 K562): 9.30
- effect on cardiomyocyte contractility (peak contraction amplitude) (hiPSC-CMs; FIGS. 3D, 3E, hiPSC-CMs from two healthy donors): potently suppresses cardiomyocyte contractility
- Cardiotoxicity (overall maximum toxic dose) (hiPSC-CMs; Table 5): 0.47 µM
- inhibition of growth of healthy HEK cells at (HEK cells): 1.1 µM
- serum cardiac troponin levels [1]: increased troponin levels

Compound: C#Cc1cc(C(=O)Nc2ccc(CN3CCN(C)CC3)c(C(F)(F)F)c2)ccc1OC [Compound 29, 3-ethynyl-4-methoxy-N-(4-((4-methylpiperazin-1-yl)methyl)-3-(trifluoromethyl)phenyl)benzamide]
- concentration at which cardiotoxicity was observed / cardiac-safe up to (hiPSC-CMs): 1.34 µM
- Cardiotoxicity (overall maximum toxic dose) (hiPSC-CMs; Table 4): 1.34 µM

Compound: Cc1cn(-c2cc(NC(=O)c3ccc(C)c(Nc4nccc(-c5cccnc5)n4)c3)cc(C(F)(F)F)c2)cn1 [Nilotinib]
- pIC50 (K-562 cells; [3]): 7.59
- pIC50 [2]: < 5.00
- Cardiotoxicity (overall maximum toxic dose) (hiPSC-CMs; Table 5): 1.12 µM

Compound: C#Cc1cc(C(=O)Nc2cc(-n3cnc(C)c3)cc(C(F)(F)F)c2)ccc1C [Compound 26, 3-ethynyl-4-methyl-N-(3-(4-methyl-1H-imidazol-1-yl)-5-(trifluoromethyl)phenyl)benzamide]
- Cardiotoxicity (overall maximum toxic dose) (hiPSC-CMs; Table 4): >10 µM

Compound: O=C(Nc1ccc(OC(F)(F)Cl)cc1)c1cnc(N2CC[C@@H](O)C2)c(-c2ccn[nH]2)c1 [Asciminib]
- Cardiotoxicity (overall maximum toxic dose) (hiPSC-CMs; Table 5): 4.81 µM

— US20240199626A1, “COMPOUNDS WITH IMPROVED CARDIAC SAFETY FOR THE TREATMENT OF CANCER AND NEURODEGENERATIVE DISORDERS” (priority 2021, published 2024)
